From article PMC10529594, “Strasseriolides display in vitro and in vivo activity against trypanosomal parasites and cause morphological and size defects in Trypanosoma cruzi” (PLOS Neglected Tropical Diseases, 2023)
pEC50: −log10 of the molar value. Where “and” joins values, the source holds several entries; their conditions need not be identical. Identical values can stand only once.

Assays:
[1] = tested on: T. b. brucei 427 bloodstream forms; assay: Resazurin-based T. b. brucei assay; type: cell-based; conditions: Trypanosoma brucei, 72 h, read-out: EC50 T. brucei
Protocol: Parasites strains adapted to culture in vitro were used. T. b. brucei Lister 427 bloodstream form parasites (information about the identity and genealogy of this strain is available at The Rockefeller University website) were grown in HMI-9 medium supplemented with 10% heat-inactivated fetal bovine serum (iFBS).
Cells in logarithmic phase of growth were added using a Multidrop dispenser (45 μL, 500 bloodstream T. b. brucei parasites per well) to 384-well Corning assay plates already containing 5 μL of each compound and controls, and incubated for 72 hours at 37°C. 10 μL of resazurin were added per well, and the plates were further incubated for 6 hours at 37°C. The final fluorescence was determined at 550–590 nm. Pentamidine at 40 nM and 0.0067% DMSO were used as […] growth controls, respectively.

[2] = tested on: T. cruzi Tulahuen C4 epimastigotes; assay: T. cruzi epimastigotes growth inhibition assay (resazurin); type: cell-based, Trypanosoma cruzi; conditions: 72 h; for EC30, epimastigotes / EC70, epimastigotes: from dose-response curve; for pEC50: Trypanosoma cruzi, TULAHUEN, Tulahuen C4, 72 h, resazurin
Protocol: (§1) The Trypanosoma cruzi Tulahuen strain used is a genetically modified strain that expresses the Escherichia coli β-galactosidase gene, lacZ [31]. It was kindly supplied by Marcel Kaiser (Swiss Tropical and Public Health Institute). The T. cruzi Tulahuen C4 strain was cultured in RPMI-1640 supplemented with 10% inactivated FBS (iFBS), 1.7 mM L-glutamine, 100 U/mL penicillin, and […] at 37°C and 5% CO2. L6 rat skeletal muscle cells were purchased from ATCC (reference CRL-1458) and used as host cells for infection with transgenic T. cruzi trypomastigotes. Epimastigotes were obtained by differentiation in LIT medium with 10% iFBS at 28°C from trypomastigote forms.
A resazurin-based assay was set up in 96-well microplates containing 10 μL of test compound at concentrations ranging from 0.39 to 200 μM and log phase parasites seeded at 2 × 10^5 cells per well in a final volume of 100 μL. Maximum DMSO percentage in the well was 0.2%. Positive and negative growth controls were included. Following 72 hour incubation at 28°C with orbital shaking, 10 μL of resazurin solution were added to each well and the plates were returned to the incubator for 4 hours. Resazurin reduction was correlated to cell viability by fluorescence measurement with excitation and emission wavelength bands centered at 550 and 590 nm, respectively, in a Tecan Infinite 200 microplate reader.

[3] = tested on: T. cruzi Tulahuen C4 intracellular amastigotes; assay: β-D-galactosidase transgenic T. cruzi assay (intracellular amastigotes in L6 cells, CPRG); type: cell-based; conditions: Trypanosoma cruzi; for inhibition at 0.00152588 µM / inhibition at 0.00305176 µM / inhibition at 0.00610352 µM / inhibition at 0.012207 µM / inhibition at 0.0244141 µM / inhibition at 0.0488281 µM / inhibition at 0.0976562 µM / inhibition at 0.195312 µM / inhibition at 0.390625 µM / inhibition at 0.78125 µM / inhibition at 1.5625 µM / inhibition at 3.125 µM / inhibition at 6.25 µM / inhibition at 12.5 µM / inhibition at 25 µM / inhibition at 50 µM: TULAHUEN, L6, T. cruzi amastigotes, 96-hour treatment, read-out: Growth inhibition (%) Average; for pEC50: Tulahuen C4 in L6 cells, 96 h, CPRG
Protocol: as §1
A Thermo Scientific Multidrop Combi dispenser was used to dispense 55 μL of T. cruzi infected L6 cells (2 ×10^3 cells per well) into 384-well Corning assay plates already containing 5 μL of each compound at concentrations ranging from 0.0015 to 50 μM and controls. The plates were incubated at 37°C for 96 hours upon which 15 μL of lysis buffer (0.5 mM CPRG, 0.5% NP40) were added to each well and further incubated for 4 hours in the dark. Absorbance at 585 nm was measured in a Perkin Elmer Envision plate reader.

L6 rat myoblast cells = assay: Cytotoxicity evaluation in L6 cells (resazurin); type: cell-based; conditions: Rattus norvegicus, Myoblast; 72 h, resazurin; read-out: EC50 L6
Protocol: One hundred microliters of supplemented RPMI 1640 medium containing the compounds and controls were added to L6 rat myoblast cells previously seeded (4,000 cells per well) in a 96-well microplate. After 72 hours at 37°C the viable cell number was determined by resazurin reduction. 20 μL of resazurin at 0.11 mg/mL in PBS 1X were added to each well and incubated in the dark for 2 hours at 37°C. Cell viability was estimated by measuring the final fluorescence at 570–590 nm in a Tecan Infinite F200 plate reader.

[4] = tested on: human macrophage THP-1 cells; assay: Cytotoxicity in THP-1 macrophages (MTT); type: cell-based; conditions: for pEC50: Homo sapiens, THP-1, 72 h, MTT, read-out: EC50 THP-1
Protocol: Cellular toxicity of compounds in the human macrophage host TPH-1 cell line was determined using the colorimetric MTT-based assay as previously described.
THP-1 cells were seeded at 3 × 10^4 cells/well in 96-well plates and were differentiated to macrophages with 20 ng/ml of PMA treatment for 48 h followed by 24 h incubation in fresh medium. Strasseriolides were added at increasing concentrations up to 50 μM and cells were further incubated at 37°C for 72 h. 10 μL of MTT (5 mg/mL in PBS) were added to each well, and plates were incubated for an additional period of 8 h at 37°C. Formazan crystals were dissolved by adding 50 μL of 20% SDS and absorbance was read at 595 nm using a microplate reader.

T. cruzi epimastigotes = assay: FACS analysis of T. cruzi epimastigotes (cell cycle, size and complexity); type: cell-based, Trypanosoma cruzi; conditions: for Foward Scatter (FSC) - Geometric Mean, single experiment / Foward Scatter (FSC) - Geometric Mean, Average / size reduction with respect to untreated parasites: 72 h
Protocol: FACS analysis was used to study cell cycle progression and cellular parameters such as size and complexity. 5 × 10^6 T. cruzi epimastigotes were harvested by centrifugation at 1,000×g and 4°C after 72 hours of incubation in a 6-well plate in the presence and in absence of test compounds. Pellets of cells were washed with 5 mL of PBS and fixed in a solution of 70% ice-cold ethanol/PBS at -20°C overnight. Cells were then collected by centrifugation, washed with PBS and stained with 40 μg/mL of propidium iodide in PBS containing 10 μg/mL of RNase A at 37°C for 30 minutes. Fluorescence was monitored with a Becton Dickinson FACSCalibur using BD CellQuest Pro version 4.0.2 software with a total of 10,000 events acquired for each sample. The different cell populations as well as mean cellular parameters were determined by FlowJo software.

[5] = 72-hour drug exposure, FACS with PI staining, EC30, average
[6] = 72-hour drug exposure, FACS with PI staining, EC30, single replicates
[7] = 72-hour drug exposure, FACS with PI staining, EC70, average
[8] = 72-hour drug exposure, FACS with PI staining, EC70, single replicates

Structure (SMILES): C/C1=C\[C@H](C)C(=O)C[C@@H](O)/C(C)=C/[C@H](C)C[C@@H](C)CC[C@@H]([C@@H](C)C(=O)O)OC(=O)[C@@H](C)C1 [Strasseriolide C, strasseriolide C]
- pEC50 [1]: 4.22
- EC30, epimastigotes [2]: 28 µM
- EC70, epimastigotes [2]: 47 µM
- pEC50 [2]: 4.49
- inhibition at 0.00152588 µM [3]: 3.17%
- inhibition at 0.00305176 µM [3]: 3.11%
- inhibition at 0.00610352 µM [3]: 4.62%
- inhibition at 0.012207 µM [3]: 9.25%
- inhibition at 0.0244141 µM [3]: 4.92%
- inhibition at 0.0488281 µM [3]: 5.95%
- inhibition at 0.0976562 µM [3]: 2.24%
- inhibition at 0.195312 µM [3]: 5.83%
- inhibition at 0.390625 µM [3]: 4.94%
- inhibition at 0.78125 µM [3]: 4.24%
- inhibition at 1.5625 µM [3]: 15.3%
- inhibition at 3.125 µM [3]: 61.8%
- inhibition at 6.25 µM [3]: 96%
- inhibition at 12.5 µM [3]: 110%
- inhibition at 25 µM [3]: 112%
- inhibition at 50 µM [3]: 115%
- pEC50 [3]: 5.51
- pEC50 (L6 rat myoblast cells): < 4.30
- Selectivity index intracellular L. donovani versus THP-1 cells [4]: 68
- pEC50 [4]: 3.35
- % Cells G1, Average (T. cruzi epimastigotes; [5]): 50.2633%
- % Cells G2/M, Average (T. cruzi epimastigotes; [5]): 31.3463%
- % Cells S, Average (T. cruzi epimastigotes; [5]): 16.5971%
- % Cells sub-G1, Average (T. cruzi epimastigotes; [5]): 3.151%
- % Cells G1, individual replicates (T. cruzi epimastigotes; [6]): 52.1473% and 48.3792%
- % Cells G2/M, individual replicates (T. cruzi epimastigotes; [6]): 31.009% and 31.6835%
- % Cells S, individual replicates (T. cruzi epimastigotes; [6]): 14.5117% and 18.6825%
- % Cells post G2/M, individual replicates (T. cruzi epimastigotes; [6]): -0.5484% and -2.167%
- % Cells sub-G1, individual replicates (T. cruzi epimastigotes; [6]): 2.8804% and 3.422%
- % Cells G1, Average (T. cruzi epimastigotes; [7]): 52.4319%
- % Cells G2/M, Average (T. cruzi epimastigotes; [7]): 31.1794%
- % Cells S, Average (T. cruzi epimastigotes; [7]): 14.7538%
- % Cells sub-G1, Average (T. cruzi epimastigotes; [7]): 3.07%
- % Cells G1, individual replicates (T. cruzi epimastigotes; [8]): 54.5779% and 50.2858%
- % Cells G2/M, individual replicates (T. cruzi epimastigotes; [8]): 30.5655% and 31.7933%
- % Cells S, individual replicates (T. cruzi epimastigotes; [8]): 10.63% and 18.8776%
- % Cells post G2/M, individual replicates (T. cruzi epimastigotes; [8]): -0.9732% and -1.896%
- % Cells sub-G1, individual replicates (T. cruzi epimastigotes; [8]): 5.2% and 0.9392%
- Foward Scatter (FSC) - Geometric Mean, single experiment (T. cruzi epimastigotes; EC30): 81.2 and 80.4
- Foward Scatter (FSC) - Geometric Mean, Average (T. cruzi epimastigotes; EC30, control 96.65): 80.8
- Foward Scatter (FSC) - Geometric Mean, single experiment (T. cruzi epimastigotes; EC70): 72.5 and 74.3
- Foward Scatter (FSC) - Geometric Mean, Average (T. cruzi epimastigotes; EC70, control 96.65): 73.4
- size reduction with respect to untreated parasites (T. cruzi epimastigotes; at EC30): 16%
- size reduction with respect to untreated parasites (T. cruzi epimastigotes; at EC70): 22%

Structure (SMILES): C/C1=C\[C@H](C)[C@@H](O)C[C@@H](O)/C(C)=C/[C@H](C)C[C@@H](C)CC[C@@H]([C@@H](C)C(=O)O)OC(=O)[C@@H](C)C1 [Strasseriolide D, strasseriolide D]
- pEC50 [1]: < 4.00
- EC30, epimastigotes [2]: 36 µM
- EC70, epimastigotes [2]: 68 µM
- pEC50 [2]: 4.37
- inhibition at 0.00152588 µM [3]: 7.88%
- inhibition at 0.00305176 µM [3]: 6.33%
- inhibition at 0.00610352 µM [3]: 2.28%
- inhibition at 0.012207 µM [3]: 4.26%
- inhibition at 0.0244141 µM [3]: 4.84%
- inhibition at 0.0488281 µM [3]: 2.75%
- inhibition at 0.0976562 µM [3]: 2.22%
- inhibition at 0.195312 µM [3]: 7.23%
- inhibition at 0.390625 µM [3]: 4.8%
- inhibition at 0.78125 µM [3]: 4.2%
- inhibition at 1.5625 µM [3]: 8.54%
- inhibition at 3.125 µM [3]: 21.2%
- inhibition at 6.25 µM [3]: 66.1%
- inhibition at 12.5 µM [3]: 100%
- inhibition at 25 µM [3]: 112%
- inhibition at 50 µM [3]: 113%
- pEC50 [3]: 5.25
- pEC50 (L6 rat myoblast cells): < 4.00
- Selectivity index intracellular L. donovani versus THP-1 cells [4]: > 37
- pEC50 [4]: < 3.30
- % Cells G1, Average (T. cruzi epimastigotes; [5]): 48.0485%
- % Cells G2/M, Average (T. cruzi epimastigotes; [5]): 33.3241%
- % Cells S, Average (T. cruzi epimastigotes; [5]): 15.9233%
- % Cells post G2/M, Average (T. cruzi epimastigotes; [5]): 0.01106%
- % Cells sub-G1, Average (T. cruzi epimastigotes; [5]): 2.693%
- % Cells G1, individual replicates (T. cruzi epimastigotes; [6]): 50.4058% and 45.6911%
- % Cells G2/M, individual replicates (T. cruzi epimastigotes; [6]): 32.7574% and 33.8908%
- % Cells S, individual replicates (T. cruzi epimastigotes; [6]): 14.3321% and 17.5145%
- % Cells post G2/M, individual replicates (T. cruzi epimastigotes; [6]): 0.6783% and -0.6562%
- % Cells sub-G1, individual replicates (T. cruzi epimastigotes; [6]): 1.8263% and 3.56%
- % Cells G1, Average (T. cruzi epimastigotes; [7]): 50.7294%
- % Cells G2/M, Average (T. cruzi epimastigotes; [7]): 37.5216%
- % Cells S, Average (T. cruzi epimastigotes; [7]): 12.1278%
- % Cells sub-G1, Average (T. cruzi epimastigotes; [7]): 1.9646%
- % Cells G1, individual replicates (T. cruzi epimastigotes; [8]): 49.2764% and 52.1825%
- % Cells G2/M, individual replicates (T. cruzi epimastigotes; [8]): 34.0219% and 41.0212%
- % Cells S, individual replicates (T. cruzi epimastigotes; [8]): 15.873% and 8.383%
- % Cells post G2/M, individual replicates (T. cruzi epimastigotes; [8]): -1.15% and -3.537%
- % Cells sub-G1, individual replicates (T. cruzi epimastigotes; [8]): 1.978% and 1.951%
- Foward Scatter (FSC) - Geometric Mean, single experiment (T. cruzi epimastigotes; EC30): 81.9 and 80.4
- Foward Scatter (FSC) - Geometric Mean, Average (T. cruzi epimastigotes; EC30, control 96.65): 81.15
- Foward Scatter (FSC) - Geometric Mean, single experiment (T. cruzi epimastigotes; EC70): 77.8 and 72.2
- Foward Scatter (FSC) - Geometric Mean, Average (T. cruzi epimastigotes; EC70, control 96.65): 75
- size reduction with respect to untreated parasites (T. cruzi epimastigotes; at EC30): 16%
- size reduction with respect to untreated parasites (T. cruzi epimastigotes; at EC70): 24%
